One may read the Ki as a dissociation constant, usually derived from enzyme kinetics or from competition with a known ligand. Read a high Ki as a looser hold on the target.

The values that follow come from ChEMBL document CHEMBL1127234, “Acceptor analogues as potential inhibitors of bovine -1,4-galactosyl transferase” (Bioorg Med Chem Lett, 1994).

Experiment [1] has as its target T1, Beta-1,4-galactosyltransferase 1 (Bos taurus) (UniProt P08037).
T1 sequence (whole entry): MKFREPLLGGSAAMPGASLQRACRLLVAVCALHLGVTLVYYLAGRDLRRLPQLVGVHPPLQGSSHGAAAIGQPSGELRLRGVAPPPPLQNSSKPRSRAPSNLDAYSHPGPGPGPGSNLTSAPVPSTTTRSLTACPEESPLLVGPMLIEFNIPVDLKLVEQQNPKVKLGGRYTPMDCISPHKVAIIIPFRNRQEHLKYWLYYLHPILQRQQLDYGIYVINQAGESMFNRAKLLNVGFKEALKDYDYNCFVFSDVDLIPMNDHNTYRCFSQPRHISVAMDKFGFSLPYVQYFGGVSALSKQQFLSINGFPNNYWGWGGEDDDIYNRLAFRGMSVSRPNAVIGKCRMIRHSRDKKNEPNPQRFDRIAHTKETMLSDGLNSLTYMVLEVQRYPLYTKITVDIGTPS
Put plainly: (§1) Inhibitory activity against bovine Beta-1,4-galactosyltransferase at 100 uM concentration.

The target in experiment [2] is T2, Beta-1,4-galactosyltransferase 1 (Bos taurus, UniProt P08037).
T2 sequence (P08037 whole entry): T1 sequence (whole entry)
The experiment is described as §1.

Experiment [3] has as its target T1, Beta-1,4-galactosyltransferase 1 (Bos taurus). Put plainly: Inhibitory activity against bovine Beta-1,4-galactosyltransferase at 100 uM concentration; ND means Not detectable.

On to `CC(=O)N[C@H]1[C@H](O)[C@@H](N)[C@H](OCc2ccccc2)O[C@@H]1CO`, for which the Rate in experiment [1] was determined as 4%.
`CC(=O)N[C@H]1[C@H](OCc2ccccc2)O[C@H](CO)[C@@H](N)[C@@H]1O` returned a Ki in experiment [2] of 850 µM. Moreover, the Rate in experiment [1] was found to be 2%.
For `CC(=O)N[C@H]1[C@H](OCc2ccccc2)O[C@H](CO)[C@@H](N=[N+]=[N-])[C@@H]1O`, the Rate result in experiment [3] was “Not detectable”.
As to `CC(=O)N[C@H]1[C@H](OCc2ccccc2)O[C@H](CO)[C@@H](O)[C@@H]1O`, the Rate in experiment [1] was determined as 100%.
The same measure, in the same setting: next, `CC(=O)N[C@H]1[C@H](O)[C@@H](N=[N+]=[N-])[C@H](OCc2ccccc2)O[C@@H]1CO`: 27%.
Take `CC(=O)N[C@H]1[C@H](OCc2ccccc2)O[C@H](CO)[C@@H](NC(C)=O)[C@@H]1O`: the Rate result is “Not detectable” in experiment [3] and 2% in experiment [1].
